Source: patent US10517294B2, “Dihydrothiophene derivatives as insecticidal compounds” (priority 2012, dated 2019)

How the values were obtained:
Assay type in all cases: in vivo
Spodoptera littoralis = Spodoptera littoralis (Egyptian cotton leaf worm), sprayed cotton leaf discs; conditions: foliar, 72 h, application rate 200 ppm, L1 larvae on cotton leaf discs, 3 days after infestation, read-out: control (at least one of mortality, anti-feedant effect, growth inhibition)
Procedure: Cotton leaf discs were placed on agar in 24-well microtiter plates and sprayed with aqueous test solutions prepared from 10′000 ppm DMSO stock solutions. After drying the leaf discs were infested with five L1 larvae. The samples were assessed for mortality, anti-feedant effect, and growth inhibition 3 days after infestation. Control of Spodoptera littoralis by a test sample is noted when at least one of mortality, anti-feedant effect, and growth inhibition is better than the untreated sample.

Heliothis virescens = Heliothis virescens (tobacco budworm), eggs on artificial diet; conditions: application rate 200 ppm, eggs 0-24 h old on artificial diet, 5 days after infestation, read-out: control (at least one of egg mortality, larval mortality, growth inhibition)
Procedure: Eggs (0-24 h old) were placed in 24-well microtiter plates on artificial diet and treated with aqueous test solutions prepared from 10′000 ppm DMSO stock solutions by pipetting. The samples were assessed for egg mortality, larval mortality and growth inhibition 5 days after infestation. Control of Heliothis virescens by a test sample is noted when at least one of egg mortality, larval mortality and growth inhibition is better than the untreated sample.

Plutella xylostella = Plutella xylostella (diamond back moth), artificial diet; conditions: 120 h, application rate 200 ppm, L2 larvae on artificial diet, 5 days after infestation, read-out: control (at least one of mortality, growth inhibition)
Procedure: 24-well microtiter plates with artificial diet were treated with aqueous test solutions prepared from 10′000 ppm DMSO stock solutions by pipetting. After drying, the plates were infested with L2 larvae (10 to 15 per well). The samples were assessed for mortality and growth inhibition 5 days after infestation. Control of Plutella xyllostella by a test sample is noted when at least one of mortality and growth inhibition is better than the untreated sample.

Diabrotica balteata = Diabrotica balteata (corn root worm), sprayed maize sprouts; conditions: 96 h, application rate 200 ppm, L2 larvae on sprayed maize sprouts, 4 days after infestation, read-out: control (at least one of mortality, growth inhibition)
Procedure: Maize sprouts, placed on an agar layer in 24-well microtiter plates were treated with aqueous test solutions prepared from 10′000 ppm DMSO stock solutions by spraying. After drying, the plates were infested with L2 larvae (6 to 10 per well). The samples were assessed for mortality and growth inhibition 4 days after infestation. Control of Diabrotica balteata by a test sample is noted when at least one of mortality and growth inhibition is better than the untreated sample.

Thrips tabaci = Thrips tabaci (onion thrips), sprayed sunflower leaf discs; conditions: foliar, 144 h, application rate 200 ppm, mixed ages on sunflower leaf discs, 6 days after infestation, read-out: control (mortality)
Procedure: Sunflower leaf discs were placed on agar in 24-well microtiter plates and sprayed with aqueous test solutions prepared from 10′000 ppm DMSO stock solutions. After drying the leaf discs were infested with a thrips population of mixed ages. The samples were assessed for mortality 6 days after infestation.

Tetranychus urticae = Tetranychus urticae (two-spotted spider mite), sprayed bean leaf discs; conditions: foliar, 192 h, application rate 200 ppm, mixed ages on bean leaf discs, 8 days after infestation, read-out: control (mortality, mobile stages)
Procedure: Bean leaf discs on agar in 24-well microtiter plates were sprayed with aqueous test solutions prepared from 10′000 ppm DMSO stock solutions. After drying the leaf discs were infested with a mite population of mixed ages. The samples were assessed for mortality (mobile stages) 8 days after infestation.

CCN1OC[C@@H](NC(=O)c2ccc(C3=CS[C@](c4cc(Cl)cc(Cl)c4)(C(F)(F)F)C3)cc2C)C1=O [Compound D3, 4-[(2R)-2-(3,5-dichlorophenyl)-2-(trifluoromethyl)-3H-thiophen-4-yl]-N-[(4R)-2-ethyl-3-oxo-isoxazolidin-4-yl]-2-methyl-benzamide]
≥ 80%: percent control (mortality, anti-feedant effect or growth inhibition) at 200 ppm (Spodoptera littoralis) | mortality at 200 ppm (Heliothis virescens) | mortality at 200 ppm (Plutella xylostella) | mortality at 200 ppm (Diabrotica balteata) | mortality at 200 ppm (Thrips tabaci) | mortality at 200 ppm (Tetranychus urticae)

Cc1cc(C2=CS[C@](c3cc(Cl)cc(Cl)c3)(C(F)(F)F)C2)ccc1C(=O)N[C@H]1C[S@@+]([O-])C1 [Compound D4, 4-[(2R)-2-(3,5-dichlorophenyl)-2-(trifluoromethyl)-3H-thiophen-4-yl]-2-methyl-N-(1-oxothietan-3-yl)benzamide]
≥ 80%: percent control (mortality, anti-feedant effect or growth inhibition) at 200 ppm (Spodoptera littoralis) | mortality at 200 ppm (Heliothis virescens) | mortality at 200 ppm (Plutella xylostella) | mortality at 200 ppm (Diabrotica balteata) | mortality at 200 ppm (Thrips tabaci) | mortality at 200 ppm (Tetranychus urticae)

CCN1OC[C@@H](NC(=O)c2ccc(C3=CS[C@@](c4cc(Cl)cc(Cl)c4)(C(F)(F)F)C3)cc2C)C1=O [Compound D7, 4-[(2S)-2-(3,5-dichlorophenyl)-2-(trifluoromethyl)-3H-thiophen-4-yl]-N-(2-ethyl-3-oxo-isoxazolidin-4-yl)-2-methyl-benzamide]
≥ 80%: percent control (mortality, anti-feedant effect or growth inhibition) at 200 ppm (Spodoptera littoralis) | mortality at 200 ppm (Plutella xylostella) | mortality at 200 ppm (Diabrotica balteata) | mortality at 200 ppm (Thrips tabaci) | mortality at 200 ppm (Tetranychus urticae)

Cc1cc(C2=CS[C@@](c3cc(Cl)cc(Cl)c3)(C(F)(F)F)C2)ccc1C(=O)N[C@H]1C[S@@+]([O-])C1 [Compound D8, 4-[(2S)-2-(3,5-dichlorophenyl)-2-(trifluoromethyl)-3H-thiophen-4-yl]-2-methyl-N-(1-oxothietan-3-yl)benzamide]
≥ 80%: percent control (mortality, anti-feedant effect or growth inhibition) at 200 ppm (Spodoptera littoralis) | mortality at 200 ppm (Plutella xylostella) | mortality at 200 ppm (Diabrotica balteata) | mortality at 200 ppm (Thrips tabaci) | mortality at 200 ppm (Tetranychus urticae)
